Measurements: patent US7741351B2, “Compounds which potentiate glutamate receptor and uses thereof in medicine” (Glaxo Group Limited, priority 2004, dated 2010)

Target: T1, human GluR2 flip (unedited) AMPA receptor subunit (Homo sapiens, UniProt P42262)
T1 construct: expressed in transfected cells
Test: Calcium influx fluorescence assay (FLUO4, potentiation of glutamate response)
Format: cell-based
Conditions: Assay a); HEK 293 cells expressing human GluR2 flip (unedited); 100 μM glutamate final; peak fluorescence
Procedure: The ability of the compounds of the invention to potentiate glutamate receptor-mediated response were determined a) by using fluorescent calcium-indicator dyes such as FLUO4 and b) by measuring glutamate-evoked current recorded from human GluR2 flip unedited HEK293 cells.
a) Calcium Influx Fluorescence Assay
384 well plates were prepared containing confluent monolayer of HEK 293 cells either stably expressing or transiently transfected with human GluR2 flip (unedited) AMPA receptor subunit. These cells form functional homotetrameric AMPA receptors. […]
The cell plate was then transferred into a fluorescence imaging plate based reader [such as the FLIPR384 (Molecular Devices)]. A baseline fluorescence reading was taken over a 10 to 240 second period, and then 10 μL from each plate containing a compound of the invention made up in standard buffer solution (in a concentration range from 100 μM to 10 pM) was added (to give a final concentration in the range 30 μM to 3 pM). The fluorescence was read over 5 minute period. […] The fluoresecence was then read over a 4 minute period. The activities of the compounds of the invention and reference compounds were determined by measuring peak fluorescence after the last addition. The activity can also be expressed relative to the fluorescence increase induced by cyclothiazide at their maximum response (i.e. greater than 30 μM).

T1 sequence (P42262 25-883 isoform P42262-2 limits assumed): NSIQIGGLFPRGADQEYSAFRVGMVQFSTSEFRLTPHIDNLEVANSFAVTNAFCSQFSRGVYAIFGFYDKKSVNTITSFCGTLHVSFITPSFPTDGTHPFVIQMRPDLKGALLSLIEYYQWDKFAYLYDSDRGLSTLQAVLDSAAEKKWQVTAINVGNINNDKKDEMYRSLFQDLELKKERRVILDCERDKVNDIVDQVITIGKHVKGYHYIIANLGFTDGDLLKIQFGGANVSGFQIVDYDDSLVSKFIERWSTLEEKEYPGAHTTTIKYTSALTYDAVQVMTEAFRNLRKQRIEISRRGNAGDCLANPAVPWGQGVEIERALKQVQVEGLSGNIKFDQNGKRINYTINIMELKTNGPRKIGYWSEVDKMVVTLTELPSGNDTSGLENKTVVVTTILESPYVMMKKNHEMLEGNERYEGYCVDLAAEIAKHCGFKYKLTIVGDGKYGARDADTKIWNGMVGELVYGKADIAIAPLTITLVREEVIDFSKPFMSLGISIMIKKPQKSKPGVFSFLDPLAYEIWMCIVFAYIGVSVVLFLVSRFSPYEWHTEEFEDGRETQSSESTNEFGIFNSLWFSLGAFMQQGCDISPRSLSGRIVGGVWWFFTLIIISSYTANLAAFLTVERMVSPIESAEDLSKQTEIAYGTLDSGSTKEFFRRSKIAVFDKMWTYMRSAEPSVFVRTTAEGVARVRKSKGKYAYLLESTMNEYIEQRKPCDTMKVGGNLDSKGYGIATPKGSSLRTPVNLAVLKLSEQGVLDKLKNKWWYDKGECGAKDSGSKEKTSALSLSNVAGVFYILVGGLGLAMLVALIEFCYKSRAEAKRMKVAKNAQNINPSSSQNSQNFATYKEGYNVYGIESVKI

EC50: 3.16 µM
SMILES: CCS(=O)(=O)Nc1cccc(-c2ccc3c(c2)CC(NS(=O)(=O)C(C)C)C3)c1 (stereo not shown) [Example 6, N-(5-{3-[(ethylsulfonyl)amino]phenyl}-2,3-dihydro-1H-inden-2-yl)-2-propanesulfonamide]
